Source: US8217000B2, “Method for elevating prolactin in mammals” (Cara Therapeutics, Inc., priority 2006, dated 2012)
Structures can show the parent of a compound that is named as a salt. Non-standard residues stand in square brackets, D forms with d. Residues, ends and D or L forms follow the SMILES beside them. *: point of attachment. NH(4-picolyl) = c1cc(CN*)ccn1; dNle = CCCC[C@@H](N)C(=O)O

Assay: Plasma pharmacokinetics of CR665 after single IV infusion in human subjects
Settings: for AUC(0-inf) / clearance / Cmax / MRT / Vd / half-life / Tmax / AUC(0-t): male, human, plasma, iv; for AUC(0-inf): AUC0-∞; for clearance: CL; for MRT: MRTint; for half-life: t1/2, males; for Tmax: median; for AUC(0-t): AUC0-t; for MRTint, geometric least squares mean: Parts A & B
Experimental: This clinical study was conducted as a double blind, placebo controlled, ascending single intravenous (IV) dose, sequential group study. This study was double blind and placebo controlled in order to avoid bias in the collection and evaluation of data during its conduct. […] In each group, subjects received CR665 or placebo. Doses were administered as a single constant rate IV infusion over 1 hour (part A) or 5 minutes (part B) on the morning of Day 1. Doses were administered in an escalating manner following satisfactory review of the safety data and pharmacokinetic data from the lower dose levels. There was a minimum of 6 days between dose escalations to allow sufficient time for an adequate safety review.
Plasma and urine samples for the analysis of CR665 and N oxide metabolite were prepared by solid phase extraction. The centrifuged eluates were quantified by liquid chromatography with tandem mass spectrometric detection (LC MS/MS). The lower limit of quantification was 1 ng/mL.
For pharmacokinetic assessments, blood samples (1×3 mL) were taken from the contralateral forearm vein(s) at the following times: Pre-dose, 15 minutes, 30 minutes, 45 minutes, 1 hour (immediately prior to the end of infusion), 1 hour 5 minutes, 1 hour 10 minutes, 1 hour 15 minutes, 1.5, 2, 2.5, 3, 4, 6, 8, 12, 16, 24, 36 and 48 hours after the start of the infusion). An indwelling cannula (Venflon®; BOC Ohmeda AB, Sweden) was used for all blood collection pre-dose and up to at least 12 hours after the start of the infusion. Otherwise, samples were collected using venipuncture. Blood samples were collected into pre-chilled 3 mL K3EDTA Vacutainer™ tubes (Becton Dickinson UK, Ltd., Oxford) and, after mixing, were placed in a cool box containing crushed ice/water. The samples were centrifuged, within 30 minutes of collection, at 1500 g for 10 minutes at approximately 4° C. For each sample, the separated plasma was transferred into two 5 mL suitably labeled polypropylene tubes, and stored immediately at approximately −20° C. Plasma samples were analyzed for CR665 using liquid chromatography with tandem mass spectrometric detection.
The pharmacokinetic analysis was conducted using WinNonlin Enterprise Version 4.0.1.
Pharmacokinetic parameters were determined from the plasma and urine, concentrations of CR665 and the N-oxide metabolite using non compartmental procedures.
Dose and body weight normalized values (norm) were determined for AUC0-t, AUC0-∞, Cinf and Cmax. Body weight normalized values [norm] were determined for Vz, Vss, CL and CLR.
The pharmacokinetic analysis was conducted using model independent methods as implemented in WinNonlin software, based on plasma concentrations of CR665 from those subjects who have received CR665 and have evaluable plasma concentration-time profiles.
The following plasma pharmacokinetic parameters were determined for CR665: • Cmax Maximum plasma concentration • tmax Time of maximum plasma concentration • t1/2z Terminal half-life=ln(2)/λz • AUC0-1 Area under the plasma concentration-time curve from time zero to time t (time of last quantifiable plasma concentration) • AUCinf Area under the plasma concentration-time curve from time zero to infinity calculated as [AUC0-t+(Clast/λz)] where Clast is the estimated concentration at the last quantifiable concentration curve. • λz Terminal-phase rate constant, also known as Kel • CL Total body clearance=Dose/AUCinf • Vz Volume of distribution based on terminal phase calculated as Vz/F=Dose/λz*AUCinf
Individual elapsed sampling times were used in the pharmacokinetic analysis. Cmax and tmax were obtained directly from the experimental observations. For the purpose of calculating AUC0-t, when two consecutive plasma concentrations below the lower limit of quantification (LLOQ) were encountered after tmax, all subsequent values were excluded from the analysis.

[1] = 0.06 mg/kg, males, 5-minute IV infusion, geometric mean
[2] = 0.06 mg/kg, males, 1 hour IV infusion, geometric mean
[3] = 0.09 mg/kg, males, 5-minute IV infusion, geometric mean
[4] = 0.12 mg/kg, males, 1 hour IV infusion, geometric mean
[5] = 0.24 mg/kg, males, 1 hour IV infusion, geometric mean
[6] = 0.36 mg/kg, males, 1 hour IV infusion, geometric mean
[7] = 0.42 mg/kg, males, 1 hour IV infusion, geometric mean
[8] = 0.48 mg/kg, males, 1 hour IV infusion, geometric mean
[9] = males, all doses, 5-minute infusion

CCCC[C@@H](NC(=O)[C@@H](Cc1ccccc1)NC(=O)[C@H](N)Cc1ccccc1)C(=O)N[C@H](CCCNC(=N)N)C(=O)NCc1ccncc1 [CR665, D-phenylalanyl-D-phenylalanyl-D-norleucyl-N-(4-pyridinylmethyl)-D-argininamide, acetate salt] (H-[dF][dF][dNle][dR]-{NH(4-picolyl)})
AUC(0-inf) [1]: 142 ng·h/mL
AUC(0-inf) [2]: 132 ng·h/mL
clearance [1]: 553 mL/min
clearance [2]: 564 mL/min
Cmax [1]: 624 ng/mL
Cmax [2]: 119 ng/mL
MRT [1]: 30.1 min
MRT [2]: 33.8 min
Vd (0.06 mg/kg, Vss, males, 0.06 mg/kg, 5-minute IV infusion, geometric mean): 16.6 L
Vd (0.06 mg/kg, Vss, males, 0.06 mg/kg, 1 hour IV infusion, geometric mean): 19 L
Vd (0.06 mg/kg, Vz, males, 5-minute IV infusion, geometric mean): 48 L
Vd (0.06 mg/kg, Vz, males, 1 hour IV infusion, geometric mean): 35.5 L
half-life (0.06 mg/kg, 5-minute IV infusion, geometric mean): 60 min
half-life (0.06 mg/kg, 1 hour IV infusion, geometric mean): 43.7 min
Tmax (0.06 mg/kg, males, 5-minute IV infusion): 5 min
Tmax (0.06 mg/kg, males, 1 hour IV infusion): 52.5 min
AUC(0-t) [3]: 209 ng·h/mL
AUC(0-inf) [3]: 213 ng·h/mL
clearance [3]: 575 mL/min
Cmax [3]: 783 ng/mL
MRT [3]: 32.2 min
Vd (0.09 mg/kg, Vss, males, 0.09 mg/kg, 5-minute IV infusion, geometric mean): 18.5 L
Vd (0.09 mg/kg, Vz, males, 5-minute IV infusion, geometric mean): 56.7 L
half-life (0.09 mg/kg, 5-minute IV infusion, geometric mean): 68.4 min
Tmax (0.09 mg/kg, males, 5-minute IV infusion): 5 min
AUC(0-t) [4]: 267 ng·h/mL
AUC(0-inf) [4]: 270 ng·h/mL
clearance [4]: 533 mL/min
Cmax [4]: 231 ng/mL
MRT [4]: 43.4 min
Vd (0.12 mg/kg, Vss, males, 0.12 mg/kg, 1 hour IV infusion, geometric mean): 23.1 L
Vd (0.12 mg/kg, Vz, males, 1 hour IV infusion, geometric mean): 75.9 L
half-life (0.12 mg/kg, 1 hour IV infusion, geometric mean): 99 min
Tmax (0.12 mg/kg, males, 1 hour IV infusion): 45 min
AUC(0-t) [5]: 474 ng·h/mL
AUC(0-inf) [5]: 478 ng·h/mL
clearance [5]: 629 mL/min
Cmax [5]: 431 ng/mL
MRT [5]: 36.8 min
Vd (0.24 mg/kg, Vss, males, 0.24 mg/kg, 1 hour IV infusion, geometric mean): 23.2 L
Vd (0.24 mg/kg, Vz, males, 1 hour IV infusion, geometric mean): 74.6 L
half-life (0.24 mg/kg, 1 hour IV infusion, geometric mean): 82.2 min
Tmax (0.24 mg/kg, males, 1 hour IV infusion): 60 min
AUC(0-t) [6]: 808 ng·h/mL
AUC(0-inf) [6]: 812 ng·h/mL
clearance [6]: 569 mL/min
Cmax [6]: 779 ng/mL
MRT [6]: 37.4 min
Vd (0.36 mg/kg, Vss, males, 0.36 mg/kg, 1 hour IV infusion, geometric mean): 21.2 L
Vd (0.36 mg/kg, Vz, males, 1 hour IV infusion, geometric mean): 80.6 L
half-life (0.36 mg/kg, 1 hour IV infusion, geometric mean): 98.4 min
Tmax (0.36 mg/kg, males, 1 hour IV infusion): 60 min
AUC(0-t) [7]: 1080 ng·h/mL
AUC(0-inf) [7]: 1080 ng·h/mL
clearance [7]: 504 mL/min
Cmax [7]: 943 ng/mL
MRT [7]: 37.1 min
Vd (0.42 mg/kg, Vss, males, 0.42 mg/kg, 1 hour IV infusion, geometric mean): 18.7 L
Vd (0.42 mg/kg, Vz, males, 1 hour IV infusion, geometric mean): 77.9 L
half-life (0.42 mg/kg, 1 hour IV infusion, geometric mean): 107 min
Tmax (0.42 mg/kg, males, 1 hour IV infusion): 60 min
AUC(0-t) [8]: 1120 ng·h/mL
AUC(0-inf) [8]: 1120 ng·h/mL
clearance [8]: 576 mL/min
Cmax [8]: 982 ng/mL
MRT [8]: 38.9 min
Vd (0.48 mg/kg, Vss, males, 0.48 mg/kg, 1 hour IV infusion, geometric mean): 22.4 L
Vd (0.48 mg/kg, Vz, males, 1 hour IV infusion, geometric mean): 93.3 L
half-life (0.48 mg/kg, 1 hour IV infusion, geometric mean): 112 min
Tmax (0.48 mg/kg, males, 1 hour IV infusion): 52.5 min
AUC0-t (norm), ratio of geometric least squares means 5-minute:1-hour (males): 1.02
AUC0-∞ (norm), ratio of geometric least squares means 5-minute:1-hour (males): 1.04
CL, ratio of geometric least squares means 5-minute:1-hour (males): 0.964
Cmax (norm), ratio of geometric least squares means 5-minute:1-hour (males): 4.49
Cmax, fold higher for the 5-minute compared to the 1-hour infusion (males): approximately 4.5 fold
MRTint, ratio of geometric least squares means 5-minute:1-hour (males): 0.923
Vss, ratio of geometric least squares means 5-minute:1-hour (males): 0.900
Vz, ratio of geometric least squares means 5-minute:1-hour (males): 1.03
t1/2, ratio of geometric least squares means 5-minute:1-hour (males): 1.02
MRTint (males, 0.24 mg/kg, 1 hour IV infusion, geometric mean): 36.8 min
MRTint, geometric least squares mean (males, 1-hour infusion): 36.3 min
MRTint, geometric least squares mean (males, 5-minute infusion): 33.5 min
Pooled between-subject variability for AUC0-∞ [9]: 15.3%
Pooled between-subject variability for Cmax [9]: 24.1%
